# Test results taken from patent US20060134063A1, “Agents for proliferating pancreatic beta-cells of the islets of langerhans, agents for suppressing apoptosis of said cells, and screening of candidate compounds for these agents” (priority 2000, published 2006).
# Experiments:
# Reg gene = test: RT-PCR of Reg gene expression in RINm5F cells; type: cell-based, rat; conditions: 24 h with stimulants
# Protocol: The Reg gene expression was analyzed by RT-PCR. The cells were harvested after 24 h of culturing in a medium supplemented with stimulants, and total RNA was prepared using cesium trifluoroacetate as described in Takasawa, S. et al. (1993) J. Biol. Chem., 268, 26052-26054. RT-PCR was performed using primers corresponding to nucleotides 23 to 43 and 572 to 593 of rat Reg mRNA (Terazono, K. et al. (1988) J. Biol. Chem., 263, 2111-2114).
# HGF gene = test: RT-PCR of HGF gene expression in RINm5F cells; type: cell-based, rat; conditions: 10 mM nicotinamide; 24 h
# Protocol: Rat insulinoma RINm5F cells were seeded at 1.5×10^5 cells/ml in a 25-cm^2 culture bottle. […] After a further 24-h incubation, total RNA was prepared using cesium trifluoroacetate as described in […]. et al. (1993) J. Biol. Chem. 268, 26052-26054 and Akiyama, T. et al. (2001) Proc. Natl. Acad. Sci. USA 98, 48-53. RT-PCR was performed using this RNA as a template and primers corresponding to nucleotides 1,556-1,575 and 2,208-2,227 of rat HGF mRNA (Okajima, A. et al. (1990) Eur. J. Biochem. 193, 375-381) as described in Sun, W. et al. (1999) Brain Res. 851, 46-53, to detect the expression of HGF gene. PCR was carried out by a two-step protocol as described in Sun, W. et al. (1999) Brain Res. 851, 46-53, with 33 cycles of the first step [denaturation (95° C., 40 s), primer annealing (60° C., 40 s), and primer elongation (72° C., 1 min)] followed by the 5 cycles of the second step [denaturation ([…], 40 s), primer annealing (60° C., 40 s), and primer elongation (72° C., 1 min)].
# [1] = test system: 5' upstream region of rat HGF gene; test: HGF promoter/luciferase reporter assay in RINm5F cells; type: cell-based; conditions: -1336 to +85 construct; 10 mM nicotinamide; 24 h
# Protocol: The 5′ upstream region (−1336 to +85) of rat HGF gene was inserted into the multicloning site of pGL3-Basic (Promega) to prepare a luciferase reporter gene construct. Rat insulinoma RINm5F cells were seeded at 1×10^5 cells/well in a 24-well plate, incubated for 2 days, then, transfected with the test luciferase reporter construct using DMRIE-C™ (Life Technologies, Inc.) as described in Akiyama, T. et al. (2001) Proc. Natl. Acad. Sci. USA 98, 48-53. […] Then, the cells were harvested in 1 ml of ice-cold phosphate-buffered saline (PBS), washed twice with PBS, and cell extracts were prepared in extraction buffer (0.1 M potassium phosphate, pH 6.8, 1 mM DTT). The protein concentration was determined using a Coomassie reagent kit (Pierce) and bovine serum albumin as a standard. Luciferase activity was determined using a chemiluminescence substrate and a Pica Gene™ Luminescence Kit (Toyo Ink Mfg. Co, Ltd., Tokyo, Japan). β-Galactosidase activity was measured using an Aurora™ GAL-XE (ICN).
# Various lengths of 5′ upstream regions HGF gene (Okajima, A., Miyazawa, K. and Kitamura, N. (1993) Eur. J. Biochem. 213, 113-119 (GenBank Ac. No. D14341)) were inserted into the multicloning site of pGL3-Basic (Promega) to prepare luciferase reporter gene constructs (FIG. 10). […] The protein concentration was determined using a Coomassie reagent kit (Pierce) and bovine serum albumin as a standard. […]
# [2] = test system: RINm5F cell lines, #1, #6, and #24, which stably express the Reg protein receptor; test: TUNEL apoptosis assay in RINm5F cell lines #1, #6, #24 expressing Reg protein receptor; type: cell-based, rat; conditions: 1,000 nM Reg protein; 20 ng/ml IL-6, 100 nM dexamethasone, 10 mM nicotinamide; 24 h
# Protocol: Rat insulinoma RINm5F cell lines, #1, #6, and #24, which stably express Reg protein receptor (Kobayashi, S. et al. (2000) J. Biol. Chem. 275, 10723-10726) were similarly cultured as in Example 4 and 1,000 nM Reg protein and HGF at varied concentrations, 0, 2.5, and 25 ng/ml were added thereto. Twenty-four hours after the addition of Reg protein/HGF, apoptosis was measured by TUNEL method using an Apoptosis Screening kit (Wako Pure Chemical Industries Ltd., Osaka, Japan) as described in Kobayashi, S. et al. (2000) J. Biol. Chem. 275, 10723-10726.
# 90% depancreatized rats = conditions: PARP inhibitor-treated rats; cited from earlier work
compound,measurement,setting,value
NC(=O)c1cccnc1 [nicotinamide],Reg gene expression (Reg mRNA),Reg gene,no effect on Reg expression
same,"HGF gene expression (RT-PCR), PARP inhibitor added to IL-6/dexamethasone",HGF gene,further enhanced HGF gene expression
same,"transcriptional activity of HGF gene (luciferase), nicotinamide added to IL-6/dexamethasone",[1],further enhanced this transcriptional induction
same,apoptosis induced by Reg protein (TUNEL),[2],did not
same,development of diabetes after 90% pancreatectomy,90% depancreatized rats,preventing the development of diabetes
